Reference: ChEMBL document CHEMBL1201862, “PubChem BioAssay data set” (2004)
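Exposure lasted 48 hours, with cells grown in 96-well plates and compounds tested at five concentrations. GI50 is the concentration that inhibits growth by half.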 Calls of active or inactive are those of the source. No stated cut-off is given here; in the data, active = GI50 up to about 1.1 µM and inactive = higher.

Experiments:
Experiment in all cases: NCI tumour cell line growth inhibition, 48 h
U-251 = tested on: U-251
CCRF-CEM = tested on: CCRF-CEM
NCI-H23 = tested on: NCI-H23
Malme-3M = tested on: Malme-3M
UO-31 = tested on: UO-31
786-0 = tested on: 786-0
SNB-75 = tested on: SNB-75
OVCAR-4 = tested on: OVCAR-4
SK-MEL-2 = tested on: SK-MEL-2
MDA-N = tested on: MDA-N
HT-29 = tested on: HT-29
SK-MEL-28 = tested on: SK-MEL-28
ACHN = tested on: ACHN
MOLT-4 = tested on: MOLT-4
A549 = tested on: A549
RPMI-8226 = tested on: RPMI-8226
OVCAR-8 = tested on: OVCAR-8
HOP-62 = tested on: HOP-62
MDA-MB-231 = tested on: MDA-MB-231

Measured: GI50

Cc1cccc2c1nc1n2C(=O)c2ccccc2-1
inactive: U-251 > 100 µM | CCRF-CEM > 100 µM | NCI-H23 > 100 µM | Malme-3M > 100 µM | UO-31 > 100 µM | 786-0 > 100 µM | SNB-75 > 100 µM | OVCAR-4 > 100 µM | SK-MEL-2 > 100 µM | MDA-N > 100 µM | HT-29 > 100 µM | SK-MEL-28 > 100 µM | ACHN > 100 µM | MOLT-4 > 100 µM | A549 > 100 µM | RPMI-8226 > 100 µM | OVCAR-8 > 100 µM

CC(C)C(Br)CCC1=CCC(Br)(Br)C1 (stereo unspecified)
inactive: U-251 15.4 µM | CCRF-CEM 2.79 µM | NCI-H23 9.1 µM | Malme-3M 14.6 µM | UO-31 10.2 µM | HOP-62 17 µM | 786-0 15.7 µM | SNB-75 10.9 µM | OVCAR-4 9.1 µM | MDA-MB-231 5.27 µM | SK-MEL-2 5.77 µM | MDA-N 2.94 µM | HT-29 13.5 µM | SK-MEL-28 15.6 µM | ACHN 16.9 µM | MOLT-4 3.48 µM | A549 17.9 µM

CCOc1ccc(N/C(=C(/C(Cl)=C(/Cl)NC(C)(C)C)[N+](=O)[O-])n2nnc3ccccc32)cc1
inactive: U-251 19 µM | CCRF-CEM 12.7 µM | NCI-H23 22.6 µM | Malme-3M 15.8 µM | UO-31 29.9 µM | HOP-62 70 µM | 786-0 18 µM | SNB-75 24.2 µM | OVCAR-4 25.6 µM | MDA-MB-231 17.9 µM | SK-MEL-2 31.6 µM | HT-29 35.1 µM | SK-MEL-28 16.4 µM | ACHN 31.8 µM | MOLT-4 > 100 µM | A549 70.3 µM | RPMI-8226 23.9 µM | OVCAR-8 16.6 µM

CC(=O)NC(C)c1ccc(/N=N/N2CCCC2)cc1 (stereo unspecified)
inactive: U-251 > 100 µM | CCRF-CEM > 100 µM | NCI-H23 > 100 µM | Malme-3M > 100 µM | UO-31 > 100 µM | HOP-62 > 100 µM | 786-0 > 100 µM | SNB-75 > 100 µM | OVCAR-4 > 100 µM | MDA-MB-231 > 100 µM | SK-MEL-2 > 100 µM | MDA-N > 100 µM | HT-29 > 100 µM | SK-MEL-28 > 100 µM | ACHN > 100 µM | A549 > 100 µM | OVCAR-8 > 100 µM

CC(=O)Nc1ncc(Sc2ccccc2C(=O)O)s1
inactive: U-251 > 100 µM | CCRF-CEM > 100 µM | NCI-H23 > 100 µM | UO-31 > 100 µM | HOP-62 > 100 µM | 786-0 > 100 µM | SNB-75 > 100 µM | MDA-MB-231 > 100 µM | SK-MEL-2 > 100 µM | MDA-N > 100 µM | HT-29 > 100 µM | SK-MEL-28 > 100 µM | ACHN > 100 µM | MOLT-4 > 100 µM | A549 > 100 µM | RPMI-8226 > 100 µM | OVCAR-8 > 100 µM

COC(=O)[C@](NC(=O)OCc1ccccc1)([C@@H](C)Sc1ccc(C)cc1)C(F)(F)F
inactive: U-251 46.9 µM | CCRF-CEM 13.6 µM | NCI-H23 19.7 µM | Malme-3M 55.7 µM | UO-31 51.9 µM | HOP-62 > 100 µM | 786-0 59.7 µM | OVCAR-4 32.3 µM | SK-MEL-2 > 100 µM | MDA-N 63.5 µM | HT-29 34.7 µM | SK-MEL-28 91.8 µM | ACHN 60.3 µM | MOLT-4 21 µM | A549 34.6 µM | RPMI-8226 29.2 µM | OVCAR-8 19.5 µM

CCCCS(=O)(=O)CCC(N)P(=O)(O)O (stereo unspecified)
inactive: U-251 > 100 µM | CCRF-CEM > 100 µM | NCI-H23 > 100 µM | Malme-3M > 100 µM | UO-31 > 100 µM | HOP-62 > 100 µM | 786-0 > 100 µM | SNB-75 > 100 µM | OVCAR-4 > 100 µM | SK-MEL-2 > 100 µM | MDA-N > 100 µM | HT-29 > 100 µM | SK-MEL-28 > 100 µM | ACHN > 100 µM | MOLT-4 > 100 µM | A549 > 100 µM | RPMI-8226 > 100 µM | OVCAR-8 > 100 µM

COC12C=CC(CC1)C1C(=O)c3c(C)c(C)n(C)c3C(=O)C12 (stereo unspecified)
inactive: U-251 > 100 µM | CCRF-CEM > 100 µM | NCI-H23 99.5 µM | Malme-3M > 100 µM | UO-31 36.1 µM | HOP-62 > 100 µM | 786-0 > 100 µM | SNB-75 67.6 µM | SK-MEL-2 > 100 µM | HT-29 > 100 µM | ACHN 90.6 µM | MOLT-4 > 100 µM | RPMI-8226 85.1 µM | OVCAR-8 > 100 µM

COC(=O)C1(C(=O)OC)N=C(C)OC1c1ccoc1 (stereo unspecified)
inactive: U-251 > 100 µM | CCRF-CEM > 100 µM | NCI-H23 > 100 µM | UO-31 > 100 µM | HOP-62 > 100 µM | 786-0 > 100 µM | SNB-75 > 100 µM | OVCAR-4 > 100 µM | SK-MEL-2 > 100 µM | MDA-N > 100 µM | SK-MEL-28 > 100 µM | ACHN > 100 µM | MOLT-4 > 100 µM | A549 > 100 µM | RPMI-8226 > 100 µM | OVCAR-8 > 100 µM

Oc1cccc(-c2cn3cc(Cl)ccc3n2)c1
inactive: U-251 69.2 µM | CCRF-CEM 7.03 µM | NCI-H23 51.8 µM | Malme-3M 51.6 µM | UO-31 36.7 µM | HOP-62 > 100 µM | 786-0 66.2 µM | OVCAR-4 32.1 µM | MDA-MB-231 > 100 µM | SK-MEL-2 38.8 µM | MDA-N 39.8 µM | HT-29 43.4 µM | SK-MEL-28 59.8 µM | ACHN 43.9 µM | MOLT-4 32.7 µM | A549 51.5 µM | OVCAR-8 31.4 µM

N#Cc1nn(C(N)=O)c(N)c1C#N
inactive: U-251 > 100 µM | CCRF-CEM > 100 µM | NCI-H23 > 100 µM | UO-31 > 100 µM | HOP-62 > 100 µM | 786-0 > 100 µM | SNB-75 > 100 µM | OVCAR-4 > 100 µM | MDA-MB-231 > 100 µM | SK-MEL-2 > 100 µM | MDA-N > 100 µM | HT-29 > 100 µM | SK-MEL-28 > 100 µM | ACHN > 100 µM | MOLT-4 > 100 µM | A549 > 100 µM | OVCAR-8 > 100 µM

CC(C)(O)[C@@H]1CC[C@](C)(C2[C@@H](O)C[C@@]3(C)C4C[C@H](OC5OCC(O)C(O)C5O)[C@H]5C(C)(C)[C@@H](OC6OCC(O)C(O)C6OC6OCC(O)C(O)C6O)CC[C@@]56C[C@@]46CC[C@]23C)O1 (stereo partly specified)
inactive: U-251 > 100 µM | CCRF-CEM > 100 µM | NCI-H23 > 100 µM | UO-31 > 100 µM | HOP-62 > 100 µM | 786-0 > 100 µM | SNB-75 > 100 µM | OVCAR-4 > 100 µM | MDA-MB-231 > 100 µM | SK-MEL-2 > 100 µM | HT-29 > 100 µM | SK-MEL-28 > 100 µM | MOLT-4 > 100 µM | A549 > 100 µM | RPMI-8226 > 100 µM | OVCAR-8 > 100 µM
